# Measured values from paper PMC10779787, “An Efficient Synthesis of 1-(1,3-Dioxoisoindolin-2-yl)-3-aryl Urea Analogs as Anticancer and Antioxidant Agents: An Insight into Experimental and In Silico Studies” (Molecules, 2023).
# Biological target: EGFR (Homo sapiens, UniProt P00533)
# Assay: EGFR kinase assay kit (BPS Bioscience), Kinase-Glo MAX luminescence, poly(Glu:Tyr […]) substrate
# Format: biochemical
# EGFR, sequence (P00533 25-1210): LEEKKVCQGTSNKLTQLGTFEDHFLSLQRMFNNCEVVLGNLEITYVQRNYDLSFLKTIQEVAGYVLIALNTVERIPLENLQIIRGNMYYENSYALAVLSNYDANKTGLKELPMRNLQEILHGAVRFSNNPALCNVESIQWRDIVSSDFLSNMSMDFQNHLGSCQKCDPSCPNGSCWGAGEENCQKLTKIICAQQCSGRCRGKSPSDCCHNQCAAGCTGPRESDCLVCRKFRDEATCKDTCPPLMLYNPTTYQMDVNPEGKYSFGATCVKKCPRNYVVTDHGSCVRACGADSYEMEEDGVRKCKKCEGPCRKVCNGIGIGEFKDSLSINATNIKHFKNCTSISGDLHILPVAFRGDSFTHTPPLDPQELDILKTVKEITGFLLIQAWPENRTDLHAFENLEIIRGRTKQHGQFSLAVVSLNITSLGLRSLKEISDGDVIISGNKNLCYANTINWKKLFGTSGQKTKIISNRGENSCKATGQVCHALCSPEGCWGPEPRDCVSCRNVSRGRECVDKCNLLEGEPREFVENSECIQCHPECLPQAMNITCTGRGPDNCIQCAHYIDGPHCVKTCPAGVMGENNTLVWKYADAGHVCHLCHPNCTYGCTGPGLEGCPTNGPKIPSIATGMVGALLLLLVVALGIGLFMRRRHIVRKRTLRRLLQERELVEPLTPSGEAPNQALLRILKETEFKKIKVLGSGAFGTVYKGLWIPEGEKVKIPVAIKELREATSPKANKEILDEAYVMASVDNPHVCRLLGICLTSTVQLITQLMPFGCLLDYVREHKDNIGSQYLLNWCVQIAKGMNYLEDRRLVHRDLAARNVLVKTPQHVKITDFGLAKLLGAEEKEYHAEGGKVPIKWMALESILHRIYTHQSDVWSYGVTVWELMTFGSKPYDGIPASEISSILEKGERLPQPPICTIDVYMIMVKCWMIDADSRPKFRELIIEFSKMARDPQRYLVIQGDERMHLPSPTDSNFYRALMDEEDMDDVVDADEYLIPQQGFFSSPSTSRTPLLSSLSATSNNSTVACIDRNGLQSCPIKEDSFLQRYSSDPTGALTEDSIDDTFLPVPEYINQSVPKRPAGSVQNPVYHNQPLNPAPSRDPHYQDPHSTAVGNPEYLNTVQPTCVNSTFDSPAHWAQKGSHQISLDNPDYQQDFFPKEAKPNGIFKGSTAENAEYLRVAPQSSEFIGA
structure (smiles),measurement,value
"O=C(Nc1ccc(Br)cc1)NN1C(=O)c2ccccc2C1=O [7c, 1-(4-Bromophenyl)-3-(1,3-dioxoisoindolin-2-yl)urea]",IC50,42.9 ± 0.8 nM
